pIC50: −log10 of the molar value.
Assays:
Acetylcholinesterase = Acetylcholinesterase (Homo sapiens, UniProt P22303); assay: biochemical
Butyrylcholinesterase = Butyrylcholinesterase (Homo sapiens, UniProt P06276); assay: biochemical
Sequence of Butyrylcholinesterase (P06276 29-602): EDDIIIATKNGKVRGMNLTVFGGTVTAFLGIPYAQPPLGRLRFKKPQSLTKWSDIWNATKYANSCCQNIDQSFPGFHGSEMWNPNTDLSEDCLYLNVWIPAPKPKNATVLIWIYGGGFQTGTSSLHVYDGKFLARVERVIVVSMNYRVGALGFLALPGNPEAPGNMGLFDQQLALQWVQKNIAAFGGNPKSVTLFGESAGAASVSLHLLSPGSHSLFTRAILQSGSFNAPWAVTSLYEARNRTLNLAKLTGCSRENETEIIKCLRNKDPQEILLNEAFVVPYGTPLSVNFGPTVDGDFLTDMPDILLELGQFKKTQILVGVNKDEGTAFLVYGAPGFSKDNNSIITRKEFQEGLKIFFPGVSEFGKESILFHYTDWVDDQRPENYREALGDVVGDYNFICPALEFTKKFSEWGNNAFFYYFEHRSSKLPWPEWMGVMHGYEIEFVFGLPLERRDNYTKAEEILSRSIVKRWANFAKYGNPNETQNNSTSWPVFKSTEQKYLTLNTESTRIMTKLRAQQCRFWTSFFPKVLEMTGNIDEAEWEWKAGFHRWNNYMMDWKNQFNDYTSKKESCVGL

Sequence of Acetylcholinesterase (P22303 32-614): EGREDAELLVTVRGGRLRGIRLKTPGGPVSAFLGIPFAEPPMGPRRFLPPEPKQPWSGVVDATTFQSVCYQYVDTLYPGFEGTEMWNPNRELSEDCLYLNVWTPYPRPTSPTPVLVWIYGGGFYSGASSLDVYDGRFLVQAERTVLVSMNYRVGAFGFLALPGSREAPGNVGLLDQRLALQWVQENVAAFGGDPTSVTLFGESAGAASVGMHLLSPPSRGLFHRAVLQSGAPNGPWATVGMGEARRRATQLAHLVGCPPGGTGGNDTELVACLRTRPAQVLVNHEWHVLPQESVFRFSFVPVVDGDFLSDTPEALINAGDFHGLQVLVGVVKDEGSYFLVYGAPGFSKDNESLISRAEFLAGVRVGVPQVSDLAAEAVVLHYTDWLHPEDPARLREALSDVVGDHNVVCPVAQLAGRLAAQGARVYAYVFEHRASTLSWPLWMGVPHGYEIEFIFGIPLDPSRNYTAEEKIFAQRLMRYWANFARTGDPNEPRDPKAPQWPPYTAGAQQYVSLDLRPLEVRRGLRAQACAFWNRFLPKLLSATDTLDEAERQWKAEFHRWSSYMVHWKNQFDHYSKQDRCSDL

SMILES	pIC50 (Acetylcholinesterase)	pIC50 (Butyrylcholinesterase)
COc1cc(Br)c2c3c1OC1CC(=O)C=CC31CCN(C)C2 (racemic) [Nr 11]	4.30	
COc1cc(Br)c2c(c1O)C13C=CC(=O)CC1N(CC3)C2 (racemic) [Nr 13]	5.30	
COc1cc(Br)c2c(c1O)C13C=C[C@@H](O)CC1N(CC3)C2 (mixture of isomers) [Nr 14]	< 4.00	4.74
CCCCCCN1CCC23C=C[C@H](O)CC2Oc2c(OC)cc(Br)c(c23)C1 (mixture of isomers) [Nr 15]	4.40	6.35
COc1cc(Br)c2c3c1OC1C[C@@H](O)C=CC31CCN(CC#N)C2 (mixture of isomers) [Nr 19]	< 4.00	4.15
CCOC(=O)C(=O)N1CCC23C=C[C@H](O)CC2Oc2c(OC)cc(Br)c(c23)C1 (mixture of isomers) [Nr 20]	4.49	4.96
C#CCN1CCC23C=C[C@H](O)CC2Oc2c(OC)cc(Br)c(c23)C1 (mixture of isomers) [Nr 23]	4.20	5.00
COc1ccc2c3c1OC1C/C(=N/N(C)C)C=CC31CCN(C)C2 (racemic) [Nr 24]	4.10	4.22
COc1cc(Br)c2c3c1OC1C[C@@H](O)C=CC31CCN(CCN1CCOCC1)C2 (mixture of isomers) [Nr 25]	5.52	
CCOC(=O)CN1CCC23C=C[C@H](O)CC2Oc2c(OC)cc(Br)c(c23)C1 (mixture of isomers) [Nr 26]	4.70	
COc1cc(Br)c2c3c1OC1C[C@@H](O)C=CC31CCN(CC(N)=O)C2 (mixture of isomers) [Nr 27]	< 4.00	4.82
COc1ccc2c3c1OC1C/C(=N/N)C=CC31CCN(C)C2 (racemic) [Nr 28]	4.40	
COc1ccc2c3c1OC1C/C(=N/NC(N)=O)C=CC31CCN(C)C2 (racemic) [Nr 32]	< 4.00	4.70
COc1cc(Br)c2c3c1OC1C[C@@H](O)C=CC31CCN(CCO)C2 (mixture of isomers) [Nr 33]	4.47	5.19
COc1ccc2c3c1OC1C[C@@H](O)C=CC31CCN(CCO)C2 (mixture of isomers) [Nr 34]	4.85	4.59
C=CCN1CCC23C=C[C@H](O)CC2Oc2c(OC)cc(Br)c(c23)C1 (mixture of isomers) [Nr 35]	< 4.00	5.59
COc1ccc2c3c1OC1C[C@@H](O)C=CC31CCN(CCN1CCOCC1)C2 (mixture of isomers) [Nr 36]		5.15
COc1ccc2c3c1OC1C[C@@H](O)C=CC31CCN(CC#N)C2 (mixture of isomers) [Nr 37]	4.52	< 4.00
COc1cc(Br)c2c3c1OC1C[C@@H](O)C=CC31CCN(Cc1ccccc1)C2 (mixture of isomers) [Nr 38]	< 4.00	6.62
C=CCN1CCC23C=C[C@H](O)CC2Oc2c(OC)ccc(c23)C1 (mixture of isomers) [Nr 40]	5.48	5.51
COc1ccc2c3c1OC1C[C@@H](O)C=CC31CCN(Cc1ccccc1)C2 (mixture of isomers) [Nr 41]	6.15	6.19
COc1cc(Br)c2c3c1OC1C[C@@H](O)C=CC31CCN(C(=O)CCN1CCCCC1)C2 (mixture of isomers) [Nr 43]	6.70	

SMILES	pIC50 (Acetylcholinesterase)	pIC50 (Butyrylcholinesterase)
CCOC(=O)CCN1CCC23C=C[C@H](O)CC2Oc2c(OC)cc(Br)c(c23)C1 (mixture of isomers) [Nr 55]	< 4.00	4.72
COc1ccc2c3c1OC1C[C@@H](O)C=CC31CCN(CCCN1CC3CC1CN3c1ccccc1)C2 (mixture of isomers) [Nr 60]	4.62	5.12
COc1ccc2c3c1OC1C[C@@H](O)C=CC31CCN(CCCN1CC3CC1CN3c1ccc(F)cc1)C2 (mixture of isomers) [Nr 61]	5.28	5.30
C=CCN1CCC23C=C[C@H](O)CC2Oc2c(OC)cc(C)c(c23)C1 (mixture of isomers) [Nr 62]	< 4.00	5.64
COc1ccc2c3c1O[C@H]1C[C@@H](O)C=C[C@@]31CCN(CCCN(C)C)C2 (racemic) [Nr 74]		5.00
COc1ccc2c3c1OC1C[C@@H](O)C=CC31CCN(CCC#N)C2 (mixture of isomers) [Nr 77]		< 4.00
CCOC(=O)CCN1CCC23C=C[C@H](O)CC2Oc2c(OC)ccc(c23)C1 (mixture of isomers) [Nr 78]		4.77
COc1ccc2c3c1OC1C[C@@H](O)C=CC31CCN(C(=O)NC1CCCCC1)C2 (mixture of isomers) [Nr 83]		< 4.00
CCNC(=O)N1CCC23C=C[C@H](O)CC2Oc2c(OC)ccc(c23)C1 (mixture of isomers) [Nr 87]		< 4.00
COc1cc(Br)c2c3c1OC1C[C@@H](O)C=CC31CCNC2 (mixture of isomers) [Nr 93]	5.30	
COc1ccc2c3c1OC1C[C@@H](O)C=CC31CCN(C(=O)CCl)C2 (mixture of isomers) [Nr 98]		4.70
CCOC(=O)CN1CCC23C=C[C@H](O)CC2Oc2c(OC)ccc(c23)C1 (mixture of isomers) [Nr 100]		4.05
COc1cc(Br)c2c(c1O)C13CCC(O)CC1N(CC3)C2 (racemic) [Nr 205]	4.30	
COc1ccc2c3c1O[C@H]1C[C@@H](OC(=O)N[C@H](C)c4ccccc4)C=C[C@@]31CCN(C)C2 [Nr 2]		4.15
COc1ccc2c3c1O[C@H]1C[C@@H](OC(=O)N[C@@H](C)c4ccccc4)C=C[C@@]31CCN(C)C2 [Nr 3]		4.12
COc1ccc2c3c1O[C@H]1C[C@@H](O)C=C[C@@]31CC[N+](C)(CCCN1CCCCC1)C2 (stereo partly shown) [Nr 4]	5.22	
COc1ccc2c3c1O[C@H]1C[C@H](OC(=O)CNC(=O)OC(C)(C)C)C=C[C@@]31CCN(C)C2 [Nr 6]	4.35	
COc1ccc2c3c1O[C@H]1C[C@@H](O)C=C[C@@]31CC[N+](C)(CCN1CCCC1)C2 (stereo partly shown) [Nr 7]	5.70	
COc1ccc2c3c1O[C@H]1C[C@@H](O)C=C[C@@]31CC[N+](C)(CCN(C)C)C2 (stereo partly shown) [Nr 8]	5.10	
COc1cc(Br)c2c3c1O[C@H]1C[C@@H](O)C=C[C@@]31CCNC2 [Nr 29]	5.52	
COc1cc(Br)c2c3c1O[C@H]1C[C@@H](O)C=C[C@@]31CCN(C)C2 [Nr 30]	5.40	
COc1ccc2c3c1O[C@H]1C[C@@H](O)C=C[C@@]31CC[N+](C)(CC(N)=O)C2 (stereo partly shown) [Nr 51]	5.51	

SMILES	pIC50 (Acetylcholinesterase)	pIC50 (Butyrylcholinesterase)
COc1ccc2c3c1O[C@H]1C[C@@H](O)C=C[C@@]31CC[N+](C)(CCN1CCCCC1)C2 (stereo partly shown) [Nr 52]	5.40	
COc1ccc2c3c1O[C@H]1C[C@@H](O)C=C[C@@]31CC[N+](C)(CCCCl)C2 (stereo partly shown) [Nr 59]	6.46	
COc1ccc2c3c1O[C@H]1C[C@@H](O)C=C[C@@]31CCN(CCC(=O)OC(C)(C)C)C2 [Nr 116]		5.40
COc1ccc2c3c1O[C@@H]1C[C@H](O)C=C[C@]31CCN(C(=O)NC(C)(C)C)C2 [Nr 125]	4.03	
COc1ccc2c3c1O[C@H]1C[C@@H](O)C=C[C@@]31CCN(C)[C@@H]2C#N [Nr 132]	5.92	
COc1ccc2c3c1O[C@H]1C[C@@H](O)C=C[C@@]31CCN(C(=O)OCC1c3ccccc3-c3ccccc31)C2 [Nr 134]	4.40	
COc1ccc2c3c1O[C@H]1C[C@@H](O)C=C[C@@]31CCN(CC#N)C2 [Nr 136]	4.82	
COc1cc(C)c2c3c1O[C@H]1C[C@@H](O)C=C[C@@]31CCN(C)C2C (stereo partly shown) [Nr 146]	4.08	
COc1ccc2c3c1O[C@@H]1C[C@H](O)C=C[C@]31CCN(CCCN(C)C)C2 [Nr 151]		4.17
C#CCN1CC[C@@]23C=C[C@H](O)C[C@@H]2Oc2c(OC)ccc(c23)C1 [Nr 156]	4.49	
COc1ccc2c3c1O[C@H]1C[C@@H](O)C=C[C@@]31CCN(CCCN1CCCCC1)C2 [Nr 162]	6.44	
COc1ccc2c3c1O[C@H]1C[C@@H](O)C=C[C@@]31CCN(CCCCCN1C(=O)c3ccccc3S1(=O)=O)C2 [Nr 163]	7.66	
COc1ccc2c3c1O[C@H]1C[C@@H](O)C=C[C@@]31CCN(CCCCCCN1C(=O)c3ccccc3S1(=O)=O)C2 [Nr 164]	7.37	
COc1ccc2c3c1O[C@H]1C[C@@H](O)C=C[C@@]31CCN(CCCCN1C(=O)c3ccccc3S1(=O)=O)C2 [Nr 165]	7.57	
COc1cc2c(cc1OC)C(=O)C(CCCCCN1CC[C@@]34C=C[C@H](O)C[C@@H]3Oc3c(OC)ccc(c34)C1)C2 (stereo partly shown) [Nr 166]	7.64	
COc1ccc2c(c1)CC(CCCCN1CC[C@@]34C=C[C@H](O)C[C@@H]3Oc3c(OC)ccc(c34)C1)C2=O (stereo partly shown) [Nr 168]	7.62	
COc1ccc2c3c1O[C@@H]1C[C@H](OC(=O)N[C@H](C)c4ccccc4)C=C[C@]31CCN(C)C2 [Nr 180]	4.07	
COc1ccc2c3c1O[C@@H]1C[C@H](OC(=S)Nc4ccccc4)C=C[C@]31CCN(C)C2 [Nr 181]	4.46	
CCCCNC(=S)O[C@@H]1C=C[C@]23CCN(C)Cc4ccc(OC)c(c42)O[C@@H]3C1 [Nr 182]	4.07	
COc1ccc2c3c1O[C@H]1C[C@@H](O)C=C[C@]31CC[N+](C)(CCN1CCOCC1)C2 (stereo partly shown) [Nr 199]	5.30	
COc1cc(Br)c2c3c1O[C@@H]1C[C@H](O)C=C[C@]31CCN(C(=O)CN1CCN(C)CC1)C2 [Nr 272]	4.05	
COc1cc(Br)c2c3c1O[C@@H]1C[C@H](O)C=C[C@]31CCN(CCCN1CCN(C)CC1)C2 [Nr 273]		4.51

From US20060111341A1, “Use of galanthamine and the derivatives thereof in the production of medicaments” (priority 2003, published 2006)
